Reference: ChEMBL document CHEMBL3045835, “Comparative study of conventional and microwave-assisted synthesis of some Schiff bases and their potential as antimicrobial agents” (2012)
Converted amounts (≈) assume the structure as drawn.

What was measured:
Format in all cases: functional
Aspergillus niger [1] = test: Antifungal activity against Aspergillus niger MTCC 2546 at 100 ug/ml after 18 hr by cup-plate method; details: MTCC 2546, 18 h, read-out: DIZ
Penicillium chrysogenum [2] = test: Antifungal activity against Penicillium chrysogenum MTCC 161 at 1500 ug/ml after 18 hr by cup-plate method; details: MTCC 161, 18 h, read-out: DIZ
Micrococcus luteus [3] = test: Antibacterial activity against Micrococcus luteus MTCC 1538 at 1500 ug/ml after 18 hr by cup-plate method; details: MTCC 1538, 18 h, read-out: DIZ
Bacillus subtilis [4] = test: Antibacterial activity against Bacillus subtilis MTCC 441 at 1000 ug/ml after 18 hr by cup plate method; details: MTCC 441, 18 h, read-out: DIZ
Staphylococcus aureus [5] = test: Antibacterial activity against Staphylococcus aureus MTCC 1430 at 1500 ug/ml after 18 hr by cup-plate method; details: MTCC 1430, 18 h, read-out: DIZ
Pseudomonas fluorescens [6] = test: Antibacterial activity against Pseudomonas fluorescens MTCC 2421 at 500 ug/ml after 18 hr by cup-plate method; details: MTCC 2421, 18 h, read-out: DIZ
Escherichia coli [7] = test: Antibacterial activity against Escherichia coli MTCC 1573 after 24 hr by broth dilution method; details: MTCC 1573, 24 h
Bacillus subtilis [8] = test: Antibacterial activity against Bacillus subtilis MTCC 441 at 200 ug/ml after 18 hr by cup plate method; details: MTCC 441, 18 h, read-out: DIZ
Penicillium chrysogenum [9] = test: Antifungal activity against Penicillium chrysogenum MTCC 161 at 500 ug/ml after 18 hr by cup-plate method; details: MTCC 161, 18 h, read-out: DIZ
Aspergillus niger [10] = test: Antifungal activity against Aspergillus niger MTCC 2546 at 500 ug/ml after 18 hr by cup-plate method; details: MTCC 2546, 18 h, read-out: DIZ
Pseudomonas fluorescens [11] = test: Antibacterial activity against Pseudomonas fluorescens MTCC 2421 at 100 ug/ml after 18 hr by cup-plate method; details: MTCC 2421, 18 h, read-out: DIZ
Aspergillus niger [12] = test: Antifungal activity against Aspergillus niger MTCC 2546 at 200 ug/ml after 18 hr by cup-plate method; details: MTCC 2546, 18 h, read-out: DIZ
Micrococcus luteus [13] = test: Antibacterial activity against Micrococcus luteus MTCC 1538 at 1000 ug/ml after 18 hr by cup-plate method; details: MTCC 1538, 18 h, read-out: DIZ
Pseudomonas aeruginosa [14] = test: Antibacterial activity against Pseudomonas aeruginosa MTCC 424 at 100 ug/ml after 18 hr by cup-plate method; details: MTCC 424, 18 h, read-out: DIZ
Bacillus pumilus [15] = test: Antibacterial activity against Bacillus pumilus MTCC 1456 at 1000 ug/ml after 18 hr by cup-plate method; details: MTCC 1456, 18 h, read-out: DIZ
Bacillus pumilus [16] = test: Antibacterial activity against Bacillus pumilus MTCC 1456 at 1500 ug/ml after 18 hr by cup-plate method; details: MTCC 1456, 18 h, read-out: DIZ
Escherichia coli [17] = test: Antibacterial activity against Escherichia coli MTCC 1573 at 200 ug/ml after 18 hr by cup-plate method; details: MTCC 1573, 18 h, read-out: DIZ
Pseudomonas aeruginosa [18] = test: Antibacterial activity against Pseudomonas aeruginosa MTCC 424 at 1000 ug/ml after 18 hr by cup-plate method; details: MTCC 424, 18 h, read-out: DIZ
Penicillium chrysogenum [19] = test: Antifungal activity against Penicillium chrysogenum MTCC 161 at 100 ug/ml after 18 hr by cup-plate method; details: MTCC 161, 18 h, read-out: DIZ
Bacillus pumilus [20] = test: Antibacterial activity against Bacillus pumilus MTCC 1456 at 200 ug/ml after 18 hr by cup-plate method; details: MTCC 1456, 18 h, read-out: DIZ
Escherichia coli [21] = test: Antibacterial activity against Escherichia coli MTCC 1573 at 1500 ug/ml after 18 hr by cup-plate method; details: MTCC 1573, 18 h, read-out: DIZ
Bacillus subtilis [22] = test: Antibacterial activity against Bacillus subtilis MTCC 441 at 1500 ug/ml after 18 hr by cup plate method; details: MTCC 441, 18 h, read-out: DIZ
Bacillus subtilis [23] = test: Antibacterial activity against Bacillus subtilis MTCC 441 after 24 hr by broth dilution method; details: MTCC 441, 24 h
Pseudomonas aeruginosa [24] = test: Antibacterial activity against Pseudomonas aeruginosa MTCC 424 at 1500 ug/ml after 18 hr by cup-plate method; details: MTCC 424, 18 h, read-out: DIZ
Pseudomonas fluorescens [25] = test: Antibacterial activity against Pseudomonas fluorescens MTCC 2421 at 200 ug/ml after 18 hr by cup-plate method; details: MTCC 2421, 18 h, read-out: DIZ
Staphylococcus aureus [26] = test: Antibacterial activity against Staphylococcus aureus MTCC 1430 after 24 hr by broth dilution method; details: MTCC 1430, 24 h
Escherichia coli [27] = test: Antibacterial activity against Escherichia coli MTCC 1573 at 500 ug/ml after 18 hr by cup-plate method; details: MTCC 1573, 18 h, read-out: DIZ

Compound: Cc1cccnc1/N=C/c1cccc2ccccc12
- zone of inhibition at 100 µg/mL (Aspergillus niger [1]): 13 mm
- zone of inhibition at 1500 µg/mL (Penicillium chrysogenum [2]): 18 mm
- zone of inhibition at 1500 µg/mL (Micrococcus luteus [3]): 26 mm
- zone of inhibition at 1000 µg/mL (Bacillus subtilis [4]): 18 mm
- zone of inhibition at 1500 µg/mL (Staphylococcus aureus [5]): 20 mm
- zone of inhibition at 500 µg/mL (Pseudomonas fluorescens [6]): 22 mm
- MIC (Escherichia coli [7]): 200 µg/mL (≈ 812 µM)
- zone of inhibition at 200 µg/mL (Bacillus subtilis [8]): 13 mm
- zone of inhibition at 500 µg/mL (Penicillium chrysogenum [9]): 15 mm
- zone of inhibition at 500 µg/mL (Aspergillus niger [10]): 19 mm
- zone of inhibition at 100 µg/mL (Pseudomonas fluorescens [11]): 17 mm
- zone of inhibition at 200 µg/mL (Aspergillus niger [12]): 16 mm
- zone of inhibition at 1000 µg/mL (Micrococcus luteus [13]): 24 mm
- zone of inhibition at 100 µg/mL (Pseudomonas aeruginosa [14]): 12 mm
- zone of inhibition at 1000 µg/mL (Bacillus pumilus [15]): 19 mm
- zone of inhibition at 1500 µg/mL (Bacillus pumilus [16]): 20 mm
- zone of inhibition at 200 µg/mL (Escherichia coli [17]): 14 mm
- zone of inhibition at 1000 µg/mL (Pseudomonas aeruginosa [18]): 16 mm
- zone of inhibition at 100 µg/mL (Penicillium chrysogenum [19]): 11 mm
- zone of inhibition at 200 µg/mL (Bacillus pumilus [20]): 16 mm
- zone of inhibition at 1500 µg/mL (Escherichia coli [21]): 19 mm
- zone of inhibition at 1500 µg/mL (Bacillus subtilis [22]): 19 mm
- MIC (Bacillus subtilis [23]): 50 µg/mL (≈ 203 µM)
- zone of inhibition at 1500 µg/mL (Pseudomonas aeruginosa [24]): 18 mm
- zone of inhibition at 200 µg/mL (Pseudomonas fluorescens [25]): 20 mm
- MIC (Staphylococcus aureus [26]): 400 µg/mL (≈ 1620 µM)
- zone of inhibition at 500 µg/mL (Escherichia coli [27]): 15 mm
